Patent US9169199B2, “Cycloalkyl guanidine F1F0-ATPase inhibitors and therapeutic uses thereof” (Lycera Corporation, priority 2010, dated 2015)

Tests used:
Ramos cells = assay: Cytotoxicity in Ramos cells; format: cell-based; settings: Homo sapiens, read-out: Ramos cell EC50
Protocol: (§1) Compounds in Example 4 above were tested for activity against F1F0-ATPase by measuring ATP synthesis. In addition, the compounds were assessed for cytotoxicity in Ramos cells. Inhibition of ATP synthesis by the F1F0-ATPase and cytotoxicity in Ramos cells were measured according to the procedures described in K. M. Johnson et al. Chemistry & Biology 2005, 12, 485-496.

F1F0-ATPase = biological target: T1, F1F0-ATPase (Bos taurus, UniProt P13621); assay: Inhibition of ATP synthesis by the F1F0-ATPase; format: biochemical
T1 construct: from tissue
Protocol: as §1

CCOC(=O)N[C@H]1CC[C@H](N/C(=N\C(=O)c2ccc(F)c(F)c2)NC2CCCCC2)CC1 [Compound 76]
EC50 (Ramos cells): > 10 µM | IC50 (F1F0-ATPase): < 10 µM

CC(C)(C)CN/C(=N/C(=O)c1ccc(F)c(F)c1)N[C@H]1CC[C@H](NC(=O)c2ccccc2)CC1 [Compound 142]
EC50 (Ramos cells): < 10 µM | IC50 (F1F0-ATPase): < 10 µM

O=C(/N=C(/Nc1cccc(Cl)c1)N[C@H]1CC[C@H](O)CC1)c1ccc(C(F)(F)F)cc1 [Compound 8]
EC50 (Ramos cells): < 10 µM | IC50 (F1F0-ATPase): < 10 µM

O=C(/N=C(/NCc1ccc(F)cc1)N[C@H]1CC[C@H](O)CC1)c1ccc(F)c(F)c1 [Compound 37]
EC50 (Ramos cells): > 10 µM | IC50 (F1F0-ATPase): > 10 µM

CCOC(=O)N[C@H]1CC[C@H](N/C(=N\C(=O)c2ccc(F)c(F)c2)NCc2ccccc2Cl)CC1 [Compound 47]
EC50 (Ramos cells): < 10 µM | IC50 (F1F0-ATPase): < 10 µM

O=C(/N=C(/Nc1cccc(C(F)(F)F)c1)N[C@H]1CC[C@H](O)CC1)c1ccc(F)c(F)c1 [Compound 4]
EC50 (Ramos cells): < 10 µM | IC50 (F1F0-ATPase): < 10 µM

O=C(/N=C(/NCc1ccc(F)c(Cl)c1)N[C@H]1CC[C@H](Nc2ncccn2)CC1)c1ccc(F)c(F)c1 [Compound 74]
EC50 (Ramos cells): < 10 µM | IC50 (F1F0-ATPase): < 10 µM

CCOC(=O)N[C@H]1CC[C@H](N/C(=N\C(=O)c2ccc(F)c(F)c2)NCc2ccc(Cl)cc2F)CC1 [Compound 63]
EC50 (Ramos cells): < 10 µM | IC50 (F1F0-ATPase): < 10 µM

N[C@H]1CC[C@H](N/C(=N/C(=O)c2ccc(F)c(F)c2)Nc2cccc(C(F)(F)F)c2)CC1 [Compound 13]
EC50 (Ramos cells): < 10 µM | IC50 (F1F0-ATPase): > 10 µM

O=C(/N=C(/Nc1cc(F)cc(Cl)c1)N[C@H]1CC[C@H](NC(=O)N2CCCC2)CC1)c1ccc(F)c(F)c1 [Compound 137]
EC50 (Ramos cells): < 10 µM | IC50 (F1F0-ATPase): < 10 µM

CC(C)(C)C(=O)N[C@H]1CC[C@H](N/C(=N\C(=O)c2ccc(F)c(F)c2)Nc2cc(F)cc(Cl)c2)CC1 [Compound 102]
EC50 (Ramos cells): < 10 µM | IC50 (F1F0-ATPase): < 10 µM

CCOC(=O)N[C@H]1CC[C@H](N/C(=N\C(=O)c2ccc(F)c(F)c2)NCc2ccc(F)c(Cl)c2)CC1 [Compound 61]
EC50 (Ramos cells): < 10 µM | IC50 (F1F0-ATPase): < 10 µM

O=C(/N=C(/Nc1cc(F)cc(Cl)c1)N[C@H]1CC[C@H](NC(=O)C2CC2)CC1)c1ccc(F)c(F)c1 [Compound 101]
EC50 (Ramos cells): < 10 µM | IC50 (F1F0-ATPase): < 10 µM

CC(C)(C)N/C(=N/C(=O)c1ccc(C(F)(F)F)cc1)N[C@H]1CC[C@H](Nc2ncccn2)CC1 [Compound 112]
EC50 (Ramos cells): > 10 µM | IC50 (F1F0-ATPase): > 10 µM

O=C(/N=C(/Nc1cc(F)cc(Cl)c1)N[C@H]1CC[C@H](NC(=O)c2ccccc2)CC1)c1ccc(F)c(F)c1 [Compound 140]
EC50 (Ramos cells): < 10 µM | IC50 (F1F0-ATPase): < 10 µM

O=C(/N=C(/Nc1cc(F)cc(Cl)c1)N[C@H]1CC[C@H](O)CC1)c1ccc(C(F)(F)F)cc1 [Compound 7]
EC50 (Ramos cells): < 10 µM | IC50 (F1F0-ATPase): < 10 µM

O=C(/N=C(/Nc1ccc(F)c(Cl)c1)N[C@H]1CC[C@H](Nc2ncccn2)CC1)c1ccc(F)c(F)c1 [Compound 83]
EC50 (Ramos cells): < 10 µM | IC50 (F1F0-ATPase): < 10 µM

CCOC(=O)N[C@H]1CC[C@H](N/C(=N\C(=O)c2ccc(F)c(F)c2)NCc2cccc(Cl)c2)CC1 [Compound 48]
EC50 (Ramos cells): < 10 µM | IC50 (F1F0-ATPase): < 10 µM

O=C(/N=C(/NCc1ccc(Cl)c(F)c1)N[C@H]1CC[C@H](O)CC1)c1ccc(F)c(F)c1 [Compound 45]
EC50 (Ramos cells): < 10 µM | IC50 (F1F0-ATPase): < 10 µM

O=C(/N=C(/NCc1ccc(Cl)cc1F)N[C@H]1CC[C@H](O)CC1)c1ccc(F)c(F)c1 [Compound 46]
EC50 (Ramos cells): < 10 µM | IC50 (F1F0-ATPase): > 10 µM

CCOC(=O)N[C@H]1CC[C@H](N/C(=N/C(=O)c2ccc(F)c(F)c2)Nc2cccc(C(F)(F)F)c2)CC1 [Compound 14]
EC50 (Ramos cells): < 10 µM | IC50 (F1F0-ATPase): < 10 µM

CCOC(=O)N[C@H]1CC[C@H](N/C(=N\C(=O)c2ccc(F)c(F)c2)NCc2ccc(F)c(F)c2)CC1 [Compound 56]
EC50 (Ramos cells): < 10 µM | IC50 (F1F0-ATPase): < 10 µM

O=C(/N=C(/NCc1cccc(F)c1F)N[C@H]1CC[C@H](O)CC1)c1ccc(F)c(F)c1 [Compound 40]
EC50 (Ramos cells): > 10 µM | IC50 (F1F0-ATPase): > 10 µM

CC(C)(C)CN/C(=N/C(=O)c1ccc(Cl)c(F)c1)N[C@H]1CC[C@H](Nc2ncccn2)CC1 [Compound 144]
EC50 (Ramos cells): < 10 µM | IC50 (F1F0-ATPase): < 10 µM

CC(C)(C)CN/C(=N/C(=O)c1ccc(F)c(F)c1)N[C@H]1CC[C@H](NC(=O)c2cccs2)CC1 [Compound 141]
EC50 (Ramos cells): < 10 µM | IC50 (F1F0-ATPase): < 10 µM

CC(C)(C)c1ccccc1N/C(=N\C(=O)c1ccc(C(F)(F)F)cc1)N[C@H]1CC[C@H](O)CC1 [Compound 1]
EC50 (Ramos cells): < 10 µM | IC50 (F1F0-ATPase): < 10 µM

CCOC(=O)NC1CCC(N/C(=N\C(=O)c2ccc(OC)cc2)Nc2cc(F)cc(Cl)c2)CC1 (stereo not shown) [Compound 152]
EC50 (Ramos cells): < 10 µM | IC50 (F1F0-ATPase): < 10 µM

CCOC(=O)N[C@H]1CC[C@H](N/C(=N\C(=O)c2ccc(F)c(F)c2)NC(C)(C)C)CC1 [Compound 103]
EC50 (Ramos cells): > 10 µM | IC50 (F1F0-ATPase): > 10 µM

CCOC(=O)N[C@H]1CC[C@H](N/C(=N\C(=O)c2ccc(F)c(F)c2)NCc2ccccc2C(F)(F)F)CC1 [Compound 50]
EC50 (Ramos cells): < 10 µM | IC50 (F1F0-ATPase): < 10 µM

CCOC(=O)N[C@H]1CC[C@H](N/C(=N\C(=O)c2ccc(F)c(F)c2)NCc2ccc(Cl)c(F)c2)CC1 [Compound 62]
EC50 (Ramos cells): < 10 µM | IC50 (F1F0-ATPase): < 10 µM

CS(=O)(=O)N[C@H]1CC[C@H](N/C(=N/C(=O)c2ccc(F)c(F)c2)Nc2cc(F)cc(Cl)c2)CC1 [Compound 96]
EC50 (Ramos cells): < 10 µM | IC50 (F1F0-ATPase): < 10 µM

CCOC(=O)NC1CCC(N/C(=N\C(=O)c2cccc(C)c2)Nc2cc(F)cc(Cl)c2)CC1 (stereo not shown) [Compound 159]
EC50 (Ramos cells): < 10 µM | IC50 (F1F0-ATPase): < 10 µM

CCOC(=O)NC1CCC(N/C(=N\C(=O)c2ccc(F)c(C)c2)Nc2cc(F)cc(Cl)c2)CC1 (stereo not shown) [Compound 161]
EC50 (Ramos cells): < 10 µM | IC50 (F1F0-ATPase): < 10 µM

CCOC(=O)N[C@H]1CC[C@H](N/C(=N\C(=O)c2ccc(F)c(F)c2)Nc2cccc(Cl)c2F)CC1 [Compound 82]
EC50 (Ramos cells): < 10 µM | IC50 (F1F0-ATPase): < 10 µM

O=C(/N=C(/NCc1cc(F)ccc1F)N[C@H]1CC[C@H](O)CC1)c1ccc(F)c(F)c1 [Compound 38]
EC50 (Ramos cells): > 10 µM | IC50 (F1F0-ATPase): > 10 µM

O=C(/N=C(/Nc1cc(F)cc(Cl)c1)N[C@H]1CC[C@H](O)CC1)c1ccc(Cl)cc1 [Compound 28]
EC50 (Ramos cells): < 10 µM | IC50 (F1F0-ATPase): > 10 µM

O=C(/N=C(/Nc1cc(F)cc(Cl)c1)N[C@H]1CC[C@H](Nc2ncccn2)CC1)c1ccc(C(F)(F)F)cc1 [Compound 115]
EC50 (Ramos cells): < 10 µM | IC50 (F1F0-ATPase): < 10 µM

O=C(/N=C(/Nc1cccc(Cl)c1)N[C@H]1CC[C@H](NC(=O)c2ccccc2)CC1)c1ccc(F)c(F)c1 [Compound 134]
EC50 (Ramos cells): < 10 µM | IC50 (F1F0-ATPase): < 10 µM

N[C@H]1CC[C@H](N/C(=N/C(=O)c2ccc(F)c(F)c2)Nc2cc(F)cc(Cl)c2)CC1 [Compound 12]
EC50 (Ramos cells): < 10 µM | IC50 (F1F0-ATPase): > 10 µM

O=C(/N=C(/Nc1cc(F)cc(Cl)c1)NC1CCC(NC(=O)c2cscn2)CC1)c1ccc(F)c(F)c1 (stereo not shown) [Compound 170]
EC50 (Ramos cells): < 10 µM | IC50 (F1F0-ATPase): < 10 µM

O=C(/N=C(/Nc1cc(F)cc(Cl)c1)NC1CCC(NC(=O)N2CCCC2)CC1)c1ccc(Cl)cc1 (stereo not shown) [Compound 163]
EC50 (Ramos cells): < 10 µM | IC50 (F1F0-ATPase): < 10 µM

O=C(/N=C(/Nc1ccccc1C1CC1)N[C@H]1CC[C@H](O)CC1)c1ccc(F)c(F)c1 [Compound 23]
EC50 (Ramos cells): > 10 µM | IC50 (F1F0-ATPase): > 10 µM

CCOC(=O)N[C@H]1CC[C@H](N/C(=N/C(=O)c2ccc(F)c(F)c2)Nc2cc(F)cc(Cl)c2)CC1 [Compound 10]
EC50 (Ramos cells): < 10 µM | IC50 (F1F0-ATPase): < 10 µM

CN(C)C(=O)N[C@H]1CC[C@H](N/C(=N\C(=O)c2ccc(F)c(F)c2)Nc2cc(F)cc(Cl)c2)CC1 [Compound 135]
EC50 (Ramos cells): < 10 µM | IC50 (F1F0-ATPase): < 10 µM

CCOC(=O)N[C@H]1CC[C@H](N/C(=N\C(=O)c2ccc(F)c(F)c2)NCc2ccc(F)cc2F)CC1 [Compound 58]
EC50 (Ramos cells): < 10 µM | IC50 (F1F0-ATPase): < 10 µM

CCOC(=O)N[C@H]1CC[C@H](N/C(=N\C(=O)c2ccc(F)c(F)c2)NC2(C)CCC2)CC1 [Compound 106]
EC50 (Ramos cells): > 10 µM | IC50 (F1F0-ATPase): > 10 µM

O=C(/N=C(/Nc1cc(F)cc(Cl)c1)N[C@H]1CC[C@H](O)CC1)c1ccc(F)c(F)c1 [Compound 6]
EC50 (Ramos cells): < 10 µM | IC50 (F1F0-ATPase): < 10 µM

O=C(/N=C(/NCc1cc(F)cc(F)c1)N[C@H]1CC[C@H](O)CC1)c1ccc(F)c(F)c1 [Compound 42]
EC50 (Ramos cells): > 10 µM | IC50 (F1F0-ATPase): > 10 µM

COC(=O)NC1CCC(N/C(=N\C(=O)c2ccccc2)Nc2cc(F)cc(Cl)c2)CC1 (stereo not shown) [Compound 150]
EC50 (Ramos cells): > 10 µM | IC50 (F1F0-ATPase): < 10 µM

O=C(/N=C(/Nc1ccccc1C1CC1)N[C@H]1CC[C@H](O)CC1)c1ccc(Cl)cc1 [Compound 22]
EC50 (Ramos cells): > 10 µM | IC50 (F1F0-ATPase): > 10 µM
